Values of other authors in patent US5576012A, “Pharmaceutical aqueous formulations containing a sparingly soluble pharmaceutical active compound with a solubilizing polymeric agent” (priority 1990, dated 1996).
Read-outs that look alike come from different tables or passages of the source.

What was measured:
[1] = not given; remark: listed apart in the source

In the case of `CCO` [ethanol], the Intravasal hemolytic reactions (intravasal) is given as “detectable”.
In the case of `CC(C)c1cccc(C(C)C)c1O` [propofol, reference compound], the “water-solubility (in words)” value ([1]; active compounds for intravasal use) is listed as “too low to dissolve the therapeutic dose in an acceptable volume”.
In the case of `CC(O)CO` (stereo not drawn) [propylene glycol], the Intravasal hemolytic reactions (in vivo) is listed as “detectable”.
In the case of `OC[C@H]1O[C@@H]2O[C@H]3[C@H](O)[C@@H](O)[C@@H](O[C@H]4[C@H](O)[C@@H](O)[C@@H](O[C@H]5[C@H](O)[C@@H](O)[C@@H](O[C@H]6[C@H](O)[C@@H](O)[C@@H](O[C@H]7[C@H](O)[C@@H](O)[C@@H](O[C@H]1[C@H](O)[C@H]2O)O[C@@H]7CO)O[C@@H]6CO)O[C@@H]5CO)O[C@@H]4CO)O[C@@H]3CO` [α-CD, α-cyclodextrin], the water-solubility ([1]; cyclodextrins in water) is listed as 17.4%.
For `OC[C@H]1O[C@@H]2O[C@H]3[C@H](O)[C@@H](O)[C@@H](O[C@H]4[C@H](O)[C@@H](O)[C@@H](O[C@H]5[C@H](O)[C@@H](O)[C@@H](O[C@H]6[C@H](O)[C@@H](O)[C@@H](O[C@H]7[C@H](O)[C@@H](O)[C@@H](O[C@H]8[C@H](O)[C@@H](O)[C@@H](O[C@H]1[C@H](O)[C@H]2O)O[C@@H]8CO)O[C@@H]7CO)O[C@@H]6CO)O[C@@H]5CO)O[C@@H]4CO)O[C@@H]3CO` [β-CD, β-cyclodextrin], the “toxic action on parenteral administration” value (administered parenterally) is given as “nephrotoxic action”.
For `OC[C@H]1O[C@@H]2O[C@H]3[C@H](O)[C@@H](O)[C@@H](O[C@H]4[C@H](O)[C@@H](O)[C@@H](O[C@H]5[C@H](O)[C@@H](O)[C@@H](O[C@H]6[C@H](O)[C@@H](O)[C@@H](O[C@H]7[C@H](O)[C@@H](O)[C@@H](O[C@H]8[C@H](O)[C@@H](O)[C@@H](O[C@H]9[C@H](O)[C@@H](O)[C@@H](O[C@H]1[C@H](O)[C@H]2O)O[C@@H]9CO)O[C@@H]8CO)O[C@@H]7CO)O[C@@H]6CO)O[C@@H]5CO)O[C@@H]4CO)O[C@@H]3CO` [γ-CD, γ-cyclodextrin], the water-solubility ([1]; water) is given as 25.8%.
